Measured values reported in patent US7998460B2, “Prevention of deficits in neurogenesis with anti-inflammatory agents” (The Board of Trustees of the Leland Stanford Junior …, priority 2003, dated 2011).
“Also recorded” adds a separate entry of the source.

Columns and labels:
[1] = tested on: adult hippocampus-derived neural precursor cells; assay: In vitro neuronal differentiation (doublecortin) of hippocampal neural progenitor cells, 60 hours; type: cell-based, rat; conditions: 60 hours differentiation
Description: Neuroinflammation could inhibit neurogenesis by a variety of mechanisms, including stimulation of the HPA axis with subsequent elevation of gluccocorticoids, alterations in the relationships between progenitor cells and cells of the neuro-vasculature, or direct effects of activated microglia on the precursor cells. To determine the extent to which microglial activation might directly affect neural stem/progenitor cells, microglia were stimulated in vitro with LPS. LPS is a potent activator of microglia and up-regulates the elaboration of pro-inflammatory cytokines, including IL-6 and TNF-α. LPS-stimulated or resting microglia were then co-cultured with normal neural stem cells from the hippocampus under conditions that typically stimulate the differentiation of 30 to 40% of the progenitor cells into immature Dcx-expressing neurons (normalized to a value of 1 in FIG. 2A, control). Neurogenesis in the presence of microglia was assessed as the increase or decrease in Dcx-expressing cells relative to control. Co-culture with activated, but not resting, microglia decreased in vitro neurogenesis to approximately half of control levels (FIG. 2A). LPS added directly to precursor cells had no effect on neurogenesis.
To determine if this effect was due to soluble factors or due to cell-cell contact, hippocampal precursor cells were differentiated in the presence of media pre-conditioned by resting or activated microglia.
Activated microglia produce the potent pro-inflammatory cytokines interleukin-1β (IL-1β), tumor necrosis factor-α (TNF-α), interferon-γ (INF-γ) and interleukin-6 (IL-6). Progenitor cells were allowed to differentiate in the presence of each cytokine and the relative expression of Dcx was scored after 60 hours. […] Addition of neutralizing anti-IL-6 antibody to CM from activated microglia was able to fully restore in vitro neurogenesis (FIG. 2A). This implicated IL-6 as a key inhibitor of neurogenesis in microglial CM. […] In contrast to neurogenesis, gliogenesis was unaffected by IL-6 exposure as indicated by the lack of change in the number of cells expressing the astrocyte (glial fibrillary acidic protein, GFAP) or early oligodendrocyte (NG2) markers relative to control cultures (FIG. 2E). The hippocampal precursors used in this study do express the IL-6 receptor, as confirmed by RT-PCR (FIG. 5).
Progenitor Cell Culture Adult hippocampus-derived neural precursor cells were isolated from adult rat hippocampus and cultured as previously described. Briefly, adult female Fisher-344 rats were deeply anesthetized with sodium pentobarbital and were dissected immediately. Hippocampi were enzymatically dissociated with papain (2.5 U/ml; Worthington, Freehold, N.J.)-dispase II (1 U/ml; Boehringer Mannheim, Indianapolis, Ind.)-DNase I (250 U/ml, Worthington) solution. Digested tissue was then washed with DMEM-10% fetal calf serum (FCS) and subsequently mixed with PBS-equilibrated Percoll solution to a final concentration of 35% Percoll. The Percoll solution was made by mixing nine parts of Percoll (Amersham Pharmacia Biotech, Uppsala, Sweden) with one part of 10× PBS. The cell suspension was then fractionated by centrifugation for 10 min at 1000×gravity. Floating myelin and tissue debris were discarded and the cell pellet re-suspended in 65% Percoll solution and fractionated again by centrifugation for 10 min at 1000×g. The floating neural precursors were collected, washed free of Percoll, and plated onto poly-L-ornithine/laminin-coated dishes in DMEM/F12 (1:1) containing 10% FCS medium for 24 hrs; then medium was replaced with serum-free growth medium consisting of DMEM/F12 (1:1) supplemented with N2 supplement (Life Technologies, Gaithersburg, Md.) and 20 ng/ml of human recombinant FGF-2 (Peprotech, Rocky Hill, N.J.). Cell lines were labeled via infection with replication deficient GFP-expressing recombinant retrovirus LZRS-CAMut4GFP. […]

hippocampal neurogenesis = assay: 10 Gy cranial X-irradiation, microglial inflammation and hippocampal neurogenesis at 2 months; type: in vivo, rat
Description: Because rats are more radio resistant than humans, 10 Gy approximates a clinically relevant dose and is below the threshold to cause demyelination or overt vasculopathy in rats. This dose of X-irradiation was previously shown to spare roughly 30% of the NPC proliferative activity but completely ablate the production of neurons. X-irradiation was limited to a 1.5 cm cylinder centered over the cranium (remaining body parts were shielded). One month later, BrdU was administered systemically and at 2 months post-irradiation, brain tissues were analyzed for hippocampal neurogenesis.
Control animals were given either vehicle (5% bicarbonate) injections i.p. or plain dog food. To ensure complete consumption of food and medication in the 2 month paradigm, rats were restricted to 80% of their ad lib intake.
Irradiation Adult female Fisher 344 rats were anesthetized with ketamine and xylazine and exposed to cranial irradiation using a Philips orthovoltage X-ray system operated at 200 kVp and 20 mA. A single dose of 10 Gy was delivered to the cranium of each rat with shielding of the body, neck, eyes and snout. Dosimetry was done using TLD dosimeters (K & S Associates, Nashville, Tenn.) buried in the hippocampi, cerebellum, mouth, eyes and ears of euthanized rats. The corrected dose rate was approximately 44.5 cGy/minute. Sham-irradiated controls for all experiments received anesthesia only.
BrdU injections and tissue preparation. Animals were injected intraperitoneally with BrdU once each day for 6 days. Animals were then anesthetized and sacrificed on the 28th day after the initial BrdU injection by transcardial perfusion with 4% paraformaldehyde. Brains were removed and postfixed overnight and then equilibrated in phosphate buffered 30% sucrose. Free floating 40 μm sections were collected on a freezing microtome and stored in cryoprotectant as previously described.
Immunocytochemistry and immunofluorescent staining. […]
Cell counting and unbiased stereology. […] The proportion of BrdU cells displaying a lineage-specific phenotype was determined by scoring the co-localization of cell phenotype markers with BrdU using confocal microscopy. […] When possible, 100 or more BrdU-positive cells were scored for each marker per animal. Each cell was manually examined in its full “z”-dimension and only those cells for which the nucleus was unambiguously associated with the lineage-specific marker were scored as positive. The total number of BrdU-labeled cells per hippocampal granule cell layer and subgranule zone was determined using diaminobenzadine stained tissues. In a separate series, the total number of ED1-labeled cells per dentate gyrus was also determined using diaminobenzadine stained tissue. Stained BrdU-positive nuclei or ED1-positive cells were scored under light microscopy using Microbrightfield Stereo Investigator software and the Fractionator method. Overestimation was corrected using the Abercrombie method for nuclei with empirically determined average diameter of 13 μm within a 40 μm section.

| Compound | effect on in vitro neurogenesis (Dcx-expressing cells relative to control) [1] | effect on cell fate in non-irradiated rats (hippocampal neurogenesis; indomethacin, non-irradiated) | effect on CD11b/NG2+ infiltrating peripheral monocytes (hippocampal neurogenesis; irradiated, indomethacin 2.5 mg/Kg orally every 12 hours) | proportion of proliferative cells adopting a neuronal fate (hippocampal neurogenesis; irradiated, indomethacin-treated (untreated irradiated 15%)) [%] | total newborn hippocampal neurons (hippocampal neurogenesis; irradiated, indomethacin-treated (untreated irradiated 125±25)) [newborn neurons] | total BrdU+ proliferative cells per neurogenic region of the dentate gyrus (hippocampal neurogenesis; irradiated, indomethacin-treated (untreated irradiated 828±135)) [proliferative cells] |
| --- | --- | --- | --- | --- | --- | --- |
| lipopolysaccharide [LPS] | no effect |  |  |  |  |  |
| COc1ccc2c(c1)c(CC(=O)O)c(C)n2C(=O)c1ccc(Cl)cc1 [indomethacin] |  | no effect | particularly effective at decreasing; also recorded: significantly reduced | 37 | 360±68 | 958±136 |
